Key:
Assay type in all cases: functional
[1] = system: Mycobacterium tuberculosis; test: Antimycobacterial activity against Mycobacterium tuberculosis strain resistant to kanamycin (KM)
[2] = system: Mycobacterium tuberculosis; test: Antimycobacterial activity against Mycobacterium tuberculosis strain resistant to cycloserine (CS)
[3] = system: Mycobacterium tuberculosis; test: Antimycobacterial activity against Mycobacterium tuberculosis strain resistant to para-aminosalicilyc acid (PAS)
[4] = system: Mycobacterium tuberculosis; test: Antimycobacterial activity against Mycobacterium tuberculosis strain resistant to pyrazinamide (PZA)
[5] = system: Mycobacterium tuberculosis; test: Antimycobacterial activity against Mycobacterium tuberculosis strain resistant to ethionamide (ETA)
[6] = system: Mycobacterium tuberculosis; test: Antimycobacterial activity against Mycobacterium tuberculosis strain resistant to isoniazid (INH)
[7] = system: Mycobacterium tuberculosis; test: Antimycobacterial activity against Mycobacterium tuberculosis strain resistant to thiacetazone (TAC)
[8] = system: Mycobacterium tuberculosis; test: Antimycobacterial activity against Mycobacterium tuberculosis strain resistant to ethambutol (EMB)
[9] = system: Mycobacterium tuberculosis; test: Antimycobacterial activity against Mycobacterium tuberculosis strain resistant to rifampin (RMP)

Measured: MIC

O=S(=O)(c1ccc(Cl)cc1)n1cnc2c(S)ncnc21
25 µg/mL: [5]
12.5 µg/mL: [1] | [4] | [6] | [9]
6.25 µg/mL: [2] | [3] | [7] | [8]

CN(C)S(=O)(=O)n1cnc2c(=S)[nH]cnc21
3.13 µg/mL: [2] | [3] | [4] | [7] | [8]
12.5 µg/mL: [5]
6.25 µg/mL: [1] | [6] | [9]

Nc1cccc(S(=O)(=O)n2cnc3c(S)ncnc32)c1
12.5 µg/mL: [1] | [2] | [3] | [4] | [6] | [7] | [8] | [9]
50 µg/mL: [5]

O=[N+]([O-])c1ccc(Sn2cnc3c(S)ncnc32)cc1
0.78 µg/mL: [8] | [9]
1.56 µg/mL: [1]
6.25 µg/mL: [6]

CC(=O)Nc1ccc(S(=O)(=O)n2cnc3c(S)ncnc32)cc1
25 µg/mL: [5]
12.5 µg/mL: [1] | [6] | [9]
6.25 µg/mL: [2] | [3] | [4] | [7] | [8]

CO[C@H]1/C=C/O[C@@]2(C)Oc3c(C)c(O)c4c(O)c(c(/C=N/N5CCN(C)CC5)c(O)c4c3C2=O)NC(=O)/C(C)=C\C=C\[C@H](C)[C@H](O)[C@@H](C)[C@@H](O)[C@@H](C)[C@H](OC(C)=O)[C@@H]1C [RIFAMPIN]
> 8 µg/mL: [9]
0.125 µg/mL: [1] | [2] | [3] | [4] | [5] | [6] | [7] | [8]

From ChEMBL document CHEMBL1134115, “Antimycobacterial activity of 9-sulfonylated/sulfenylated-6-mercaptopurine derivatives” (Bioorg Med Chem Lett, 2001)
